Experimental data: ChEMBL document CHEMBL1156977, “Synthesis of new beta-1-C-alkylated imino-L-iditols: A comparative study of their activity as beta-glucocerebrosidase inhibitors” (Bioorg Med Chem, 2010)
pIC50, pKi: −log10 of the molar value.

Assays:
[1] = biological target: T1, Lysosomal acid glucosylceramidase (Homo sapiens, UniProt P04062); test: Inhibition of human recombinant beta-glucocerebrosidase assessed as p-nitrophenolate accumulation preincubated for 10 mins before p-nitrophenyl-beta-d-glucopyranoside addition measured after 10 mins by […]
T1 sequence (P04062 whole entry): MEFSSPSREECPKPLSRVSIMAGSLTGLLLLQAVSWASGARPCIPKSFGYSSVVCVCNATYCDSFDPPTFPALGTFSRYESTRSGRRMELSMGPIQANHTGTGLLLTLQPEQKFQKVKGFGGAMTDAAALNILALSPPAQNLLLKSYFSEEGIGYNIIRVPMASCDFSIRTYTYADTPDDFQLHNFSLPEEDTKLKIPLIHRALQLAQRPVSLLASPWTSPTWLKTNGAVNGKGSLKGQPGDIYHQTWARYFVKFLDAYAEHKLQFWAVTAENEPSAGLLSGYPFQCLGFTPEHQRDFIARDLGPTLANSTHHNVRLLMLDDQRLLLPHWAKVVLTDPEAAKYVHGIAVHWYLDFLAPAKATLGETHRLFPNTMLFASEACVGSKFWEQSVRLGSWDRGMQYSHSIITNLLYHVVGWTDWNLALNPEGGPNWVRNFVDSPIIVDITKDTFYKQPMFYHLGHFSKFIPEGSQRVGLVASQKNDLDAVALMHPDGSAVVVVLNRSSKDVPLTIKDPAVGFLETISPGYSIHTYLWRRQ

[2] = biological target: T2, Lysosomal acid glucosylceramidase (Homo sapiens) (UniProt P04062); test: Inhibition of misfolded beta-glucocerebrosidase in human gaucher cells assessed as increase in enzyme activity at 10 nM; type: cell-based
T2 sequence (whole entry): T1 sequence (P04062 whole entry)

[3] = biological target: T2, Lysosomal acid glucosylceramidase (Homo sapiens); test: Inhibition of human recombinant beta-glucocerebrosidase assessed as p-nitrophenolate accumulation at 1000 uM preincubated for 10 mins before p-nitrophenyl-beta-d-glucopyranoside addition measured after 10 mins by […]

pIC50 [1] | SMILES | also measured
6.25 | CCC[C@H]1NC[C@@H](O)[C@H](O)[C@H]1O | –
3.31 | CCCC1N[C@@H](CO)[C@@H](O)[C@H](O)[C@H]1O (single isomer, unassigned) | –
3.83 | CCCCC1N[C@@H](CO)[C@@H](O)[C@H](O)[C@H]1O (single isomer, unassigned) | –
4.37 | CCCCCC[C@H]1N[C@@H](CO)[C@@H](O)[C@H](O)[C@H]1O | –
– | CCCCCCCCC[C@H]1NC[C@@H](O)[C@H](O)[C@H]1O | pKi [1]: 8.66; fold change (FC) [2]: 2
7.72 | CCCCCC[C@H]1NC[C@@H](O)[C@H](O)[C@H]1O | –
– | OCC(O)C[C@H]1N[C@@H](CO)[C@@H](O)[C@H](O)[C@H]1O (stereo partly drawn) | inhibition [3]: < 50%
